In US20240018153A1, “BENZENESULFONAMIDE DERIVATIVES AND USES THEREOF” (2692372 ONTARIO, INC., priority 2020, published 2024):

Legend:
BTK = BTK (Homo sapiens (Human), UniProt Q06187); experiment: Time-dependent inhibition of BTK (HTRF); format: biochemical; conditions: pre-incubation 0-45 min; for Time-dependent inhibition of BTK: product formation versus pre-incubation time: mono-exponential decay fit
Protocol: For the time-dependent inhibition experiments, the activity of BTK kinases was monitored using a HTRF® KinEASE-TK kit from Cisbio (62TK0PEC) as described above. […] The pre incubation times were 0, 1, 3, 5, 10, 15, 30 and 45 min. After the preincubation, reaction was initiated by adding biotinylated substrate and ATP and the reaction was allowed to proceed for 45 min. […] After 60 min of incubation, the fluorescence emission was measured at 620 nm and 665 nm. The ratio of Em 665 nm to Em 620 nm was proportional to the amount of substrate phosphorylated by the kinase. Product formation vs pre-incubation time data were fitted to a one phase exponential decay equation using GraphPad Prism. The same product formation vs inhibitor concentration data were also fitted to a log(antagonist) vs. response—Variable slope equation in GraphPad Prism to provide IC50 values at different pre incubation times.

EGFR = EGFR (Homo sapiens (Human), UniProt P00533); experiment: Time-dependent inhibition of EGFR (HTRF); format: biochemical; conditions: pre-incubation 0-60 min; for Time-dependent inhibition of EGFR: product formation versus pre-incubation time: mono-exponential decay fit
Protocol: For the time-dependent inhibition experiments, the activity of EGFR kinase was monitored using a HTRF® KinEASE-TK kit from Cisbio (62TK0PEC) as described above. Six compounds showing higher potency during dose response analysis against EGFR, were further evaluated for their change in inhibitory potency over time. Ibrutinib was used as a positive control. The selected compounds were pre incubated with the kinase at 11 different concentrations, ranging from […] to 25 uM final compound concentrations. The pre incubation times were 0, 2, 5, 10, 15, 30, 45 and 60 min. After the preincubation, the reaction was initiated by adding biotinylated substrate and ATP and the reaction was allowed to proceed for 45 min. […] The reaction was terminated by adding 31.25 nM SA-XL665 and 100 fold diluted europium labelled antibody (Eu-Ab), diluted in 1× detection buffer that contained EDTA. After 60 min of incubation, the fluorescence emission was measured at 620 nm and 665 nm. The ratio of Em 665 nm to Em 620 nm was proportional to the amount of substrate phosphorylated by the kinase. Product formation vs pre-incubation time data were fitted to a one phase exponential decay equation using GraphPad Prism. The same product formation vs inhibitor concentration data were also fitted to a log(antagonist) vs. response—Variable slope equation in GraphPad Prism to provide IC50 values at different pre incubation times.

[1] = biological target: His-tagged BTK protein (SEQ ID NO: 1) (Homo sapiens (Human), UniProt Q06187); experiment: Intact mass analysis (LC-MS/MS) of covalent modification; format: binding; conditions: His-tagged BTK (unmodified 32,650 Da) incubated with compound
Protocol: The covalent modification of the proteins with the compounds were evaluated using intact mass analysis by liquid chromatography-mass spectrometry instrument (LC-MS/MS).
The reaction solution (20 μL) was prepared in 96-well plate and contained the protein (2 μM), the compound (100 μM), HEPES buffer (20 mM, pH 8), 2% DMSO, 2% glycerol, and 150 mM NaCl. The reaction was allowed to proceed for 24 h at 25° C. The reaction solution (1 μL) was injected into the LC/MS/MS without any further sample preparation.
The LC-MS/MS instrument comprises of a Waters G2-XS quadrupole-time of flight (QTof) mass spectrometer and a Waters Acuity I-class Ultra-High Performance Liquid Chromatography (UPLC) system. The I-class UPLC system includes a binary solvent manager (BSM), and a Acquity sample manager (SM). The mobile phase consisted of: A) 0.1% (v/v) formic acid in MilliQ water; B) 0.1% (v/v) formic acid acetonitrile. Gradients were run over 5 min and proceeded as follows: A:B, 85:15, 0.0-0.7 min, 85:15→15:85, 0.7-1.5 min, 10:90, 1.5-4 min, 10:90→85:15, 4-4.5 min, 85:15, 4.5-5 min. The analytical column was a Waters BEH C4 column 1.7 μm (50×1 mm) column with pore sizes of […]. The TOF MS data was collected in positive ion mode (m/z of 400-2000 Da) using MassLynx software (Waters).
The spectral deconvolution was performed using UNIFI software (Waters). The added mass of the protein upon covalent modification to cysteine residues were specified. Multiple modification of up to 8 cysteine was allowed. All the adducts with signal intensities of <2% of the base peak were ignored. The % modification was calculated as the adduct signal intensity over the total intensities of the protein peaks and the adducts.

Sequence of BTK (Q06187 whole entry): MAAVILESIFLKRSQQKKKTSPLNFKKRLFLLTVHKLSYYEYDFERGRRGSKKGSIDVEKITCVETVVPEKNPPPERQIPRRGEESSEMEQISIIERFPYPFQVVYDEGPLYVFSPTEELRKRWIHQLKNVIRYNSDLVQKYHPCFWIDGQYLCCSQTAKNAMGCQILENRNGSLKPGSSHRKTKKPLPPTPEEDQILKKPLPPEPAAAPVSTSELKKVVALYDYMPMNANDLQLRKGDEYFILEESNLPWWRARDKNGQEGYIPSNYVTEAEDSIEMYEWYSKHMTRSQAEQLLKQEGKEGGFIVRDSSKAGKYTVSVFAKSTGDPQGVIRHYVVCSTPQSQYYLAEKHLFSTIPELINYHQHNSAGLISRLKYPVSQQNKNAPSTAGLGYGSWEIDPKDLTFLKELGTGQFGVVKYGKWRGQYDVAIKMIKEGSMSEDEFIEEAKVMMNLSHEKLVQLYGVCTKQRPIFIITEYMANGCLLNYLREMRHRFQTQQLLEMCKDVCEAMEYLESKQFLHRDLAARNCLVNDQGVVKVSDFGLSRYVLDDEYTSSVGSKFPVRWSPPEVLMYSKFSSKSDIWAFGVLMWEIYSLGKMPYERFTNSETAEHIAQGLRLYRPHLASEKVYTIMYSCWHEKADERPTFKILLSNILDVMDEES
Sequence of EGFR (P00533 25-1210): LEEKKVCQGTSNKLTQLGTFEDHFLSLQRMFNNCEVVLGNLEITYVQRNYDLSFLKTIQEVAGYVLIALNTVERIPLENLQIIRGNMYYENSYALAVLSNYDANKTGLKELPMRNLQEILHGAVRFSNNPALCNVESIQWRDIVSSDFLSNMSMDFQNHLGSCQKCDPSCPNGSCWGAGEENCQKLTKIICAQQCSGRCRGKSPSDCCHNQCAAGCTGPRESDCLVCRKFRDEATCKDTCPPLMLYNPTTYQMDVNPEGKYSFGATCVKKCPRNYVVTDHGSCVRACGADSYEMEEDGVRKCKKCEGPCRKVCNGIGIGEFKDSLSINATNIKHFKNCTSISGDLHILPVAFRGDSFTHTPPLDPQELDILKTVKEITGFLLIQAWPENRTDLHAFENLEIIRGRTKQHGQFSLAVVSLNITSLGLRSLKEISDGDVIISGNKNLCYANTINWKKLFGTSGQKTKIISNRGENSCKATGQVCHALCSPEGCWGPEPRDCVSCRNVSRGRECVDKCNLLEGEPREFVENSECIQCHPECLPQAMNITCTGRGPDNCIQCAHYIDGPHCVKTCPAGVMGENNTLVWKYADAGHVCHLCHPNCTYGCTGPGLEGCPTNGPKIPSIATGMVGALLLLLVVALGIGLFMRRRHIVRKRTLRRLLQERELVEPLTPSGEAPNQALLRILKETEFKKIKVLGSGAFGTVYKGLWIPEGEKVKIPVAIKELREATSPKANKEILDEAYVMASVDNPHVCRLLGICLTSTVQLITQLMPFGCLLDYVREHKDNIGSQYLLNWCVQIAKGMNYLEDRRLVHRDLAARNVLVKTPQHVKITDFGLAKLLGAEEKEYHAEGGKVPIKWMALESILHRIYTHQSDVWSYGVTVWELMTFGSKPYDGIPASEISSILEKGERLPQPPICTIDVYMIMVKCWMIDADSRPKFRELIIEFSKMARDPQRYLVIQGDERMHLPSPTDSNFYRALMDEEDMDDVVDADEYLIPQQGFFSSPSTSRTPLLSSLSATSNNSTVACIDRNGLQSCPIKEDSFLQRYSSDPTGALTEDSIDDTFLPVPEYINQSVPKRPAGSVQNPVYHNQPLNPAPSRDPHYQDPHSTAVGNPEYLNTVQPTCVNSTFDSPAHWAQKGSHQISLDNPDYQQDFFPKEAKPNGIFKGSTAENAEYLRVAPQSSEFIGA
Sequence of His-tagged BTK protein (SEQ ID NO: 1) (Q06187 other isoform, or with tags, fused parts or gaps): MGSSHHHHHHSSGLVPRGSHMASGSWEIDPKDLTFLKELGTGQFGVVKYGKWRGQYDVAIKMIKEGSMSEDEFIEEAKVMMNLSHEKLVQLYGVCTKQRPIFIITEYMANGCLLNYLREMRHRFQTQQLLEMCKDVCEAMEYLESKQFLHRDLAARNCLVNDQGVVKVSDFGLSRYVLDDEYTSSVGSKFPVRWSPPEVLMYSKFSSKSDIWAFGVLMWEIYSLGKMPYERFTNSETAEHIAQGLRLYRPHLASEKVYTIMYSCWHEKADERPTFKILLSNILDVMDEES

Row | Compound | Time-dependent inhibition of BTK: product formation versus pre-incubation time (BTK) | Time-dependent inhibition of BTK: IC50 values versus pre-incubation time (BTK) | Time-dependent inhibition of EGFR: product formation versus pre-incubation time (EGFR) | Time-dependent inhibition of EGFR: IC50 values versus pre-incubation time (EGFR) | covalent adduct mass (intact mass analysis, modification by one molecule) [1]
1 | C[S@+]([O-])c1c(F)c(F)c(F)c(F)c1C(=O)N1CC(n2nc(-c3ccc(Oc4ccccc4)cc3)c3c(N)ncnc32)C1 (racemic) [Compound I-37, (3-(4-amino-3-(4-phenoxyphenyl)-1H-pyrazolo[3,4-d]pyrimidin-1-yl)azetidin-1-yl)(2,3,4,5-tetrafluoro-6-(methylsulfinyl)phenyl)methanone] | concentration-dependent first order loss of enzyme activity | decrease as pre-incubation times increase | concentration-dependent first order loss of enzyme activity | decrease as pre-incubation times increase | –
2 | C[S+]([O-])c1c(F)c(F)c(F)c(F)c1Nc1cc2c(Nc3ccc(F)c(Cl)c3)ncnc2cc1O[C@H]1CCOC1 (stereo partly drawn) [Compound I-4, N^4-(3-chloro-4-fluorophenyl)-N^6-(2,3,4,5-tetrafluoro-6-(methylsulfinyl)phenyl)-7-(((S)-tetrahydrofuran-3-yl)oxy)quinazoline-4,6-diamine] | – | – | concentration-dependent first order loss of enzyme activity | decrease as pre-incubation times increase | –
3 | CN(C)S(=O)(=O)c1c(F)c(F)c(F)c(F)c1C(=O)NCCn1nc(-c2ccc(Oc3ccccc3)cc2)c2c(N)ncnc21 [Compound I-40, N-(2-(4-amino-3-(4-phenoxyphenyl)-1H-pyrazolo[3,4-d]pyrimidin-1-yl)ethyl)-2-(N,N-dimethylsulfamoyl)-3,4,5,6-tetrafluorobenzamide] | concentration-dependent first order loss of enzyme activity | decrease as pre-incubation times increase | – | – | –
4 | C[S+]([O-])c1c(F)c(F)c(F)c(F)c1C(=O)Nc1cc2c(Nc3ccc(F)c(Cl)c3)ncnc2cc1OC1CCOC1 (stereo not shown) [Compound I-3] | – | – | concentration-dependent first order loss of enzyme activity | decrease as pre-incubation times increase | –
5 | Nc1ncnc2c1c(-c1ccc(Oc3ccccc3)cc1)nn2[C@@H]1CCN(S(=O)(=O)c2c(F)c(F)c(F)c(F)c2OCF)C1 [Compound I-24, (R)-3-(4-phenoxyphenyl)-1-(1-((2,3,4,5-tetrafluoro-6-(fluoromethoxy)phenyl)sulfonyl)pyrrolidin-3-yl)-1H-pyrazolo[3,4-d]pyrimidin-4-amine] | – | – | – | – | 33,263 Da
6 | CS(=O)(=O)c1c(F)c(F)c(F)c(F)c1Nc1cc2c(Nc3ccc(F)c(Cl)c3)ncnc2cc1O[C@H]1CCOC1 [Compound I-2, (S)—N^4-(3-chloro-4-fluorophenyl)-N^6-(2,3,4,5-tetrafluoro-6-(methylsulfonyl)phenyl)-7-((tetrahydrofuran-3-yl)oxy)quinazoline-4,6-diamine] | – | – | concentration-dependent first order loss of enzyme activity | decrease as pre-incubation times increase | –
7 | CS(=O)(=O)c1c(F)c(F)c(F)c(F)c1C(=O)NCCn1nc(-c2ccc(Oc3ccccc3)cc2)c2c(N)ncnc21 [Compound I-38, N-(2-(4-amino-3-(4-phenoxyphenyl)-1H-pyrazolo[3,4-d]pyrimidin-1-yl)ethyl)-2,3,4,5-tetrafluoro-6-(methylsulfonyl)benzamide] | concentration-dependent first order loss of enzyme activity | decrease as pre-incubation times increase | – | – | –
8 | Nc1ncnc2c1c(-c1ccc(Oc3ccccc3)cc1)nn2CCCNC(=O)c1c(F)c(F)c(F)c(F)c1S(N)(=O)=O [Compound I-34, N-(3-(4-amino-3-(4-phenoxyphenyl)-1H-pyrazolo[3,4-d]pyrimidin-1-yl)propyl)-2,3,4,5-tetrafluoro-6-sulfamoylbenzamide] | concentration-dependent first order loss of enzyme activity | decrease as pre-incubation times increase | – | – | –
9 | CN(CCn1nc(-c2ccc(Oc3ccccc3)cc2)c2c(N)ncnc21)C(=O)c1c(F)c(F)c(F)c(F)c1S(N)(=O)=O [Compound I-33, N-(2-(4-amino-3-(4-phenoxyphenyl)-1H-pyrazolo[3,4-d]pyrimidin-1-yl)ethyl)-2,3,4,5-tetrafluoro-N-methyl-6-sulfamoylbenzamide] | concentration-dependent first order loss of enzyme activity | decrease as pre-incubation times increase | – | – | –
